Experimental data: PubChem BioAssay AID330 (DTP/NCI, 2004)
Where “and” joins values, the source holds several entries; their conditions need not be identical. Equal values may be shown once. Inconclusive results and toxic doses are left out. Rule for the calls: active = survival T/C of 150% or more; inactive = T/C below 125% in these data.

Test system: P388 leukemia ip, CD2F1 mice, survival T/C
Experiment: NCI In Vivo Anticancer Drug Screen. Data for tumor model P388 Leukemia (intraperitoneal) in CD2F1 (CDF1) mice
Conditions: endpoint: median survival time, higher = longer survival
How it was run: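 Mice carrying the transplanted tumor received test compound or vehicle. Survival was recorded in each group, and the value is the treated-group measurement divided by that of the vehicle-treated control group.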

[1] = dose: 50.0 mg/kg/injection, schedule: Q01DX005 (ip), vehicle: saline with Tween-80
[2] = dose: 100.0 mg/kg/injection, schedule: Q01DX005 (ip), vehicle: saline with Tween-80
[3] = dose: 200.0 mg/kg/injection, schedule: Q01DX005 (ip), vehicle: saline with Tween-80
[4] = dose: 50.0 mg/kg/injection, schedule: Q01DX005 (ip), vehicle: Klucel (hydroxypropylcellulose) (HPC)
[5] = dose: 100.0 mg/kg/injection, schedule: Q01DX005 (ip), vehicle: Klucel (hydroxypropylcellulose) (HPC)
[6] = dose: 200.0 mg/kg/injection, schedule: Q01DX005 (ip), vehicle: Klucel (hydroxypropylcellulose) (HPC)
[7] = dose: 60.0 mg/kg/injection, schedule: Q01DX005 (ip), vehicle: saline with Tween-80
[8] = dose: 120.0 mg/kg/injection, schedule: Q01DX005 (ip), vehicle: saline with Tween-80
[9] = dose: 240.0 mg/kg/injection, schedule: Q01DX005 (ip), vehicle: saline with Tween-80
[10] = dose: 50.0 mg/kg/injection, schedule: Q01DX009 (ip), vehicle: Klucel (hydroxypropylcellulose) (HPC)
[11] = dose: 100.0 mg/kg/injection, schedule: Q01DX009 (ip), vehicle: Klucel (hydroxypropylcellulose) (HPC)
[12] = dose: 200.0 mg/kg/injection, schedule: Q01DX009 (ip), vehicle: Klucel (hydroxypropylcellulose) (HPC)
[13] = dose: 100.0 mg/kg/injection, schedule: Q04DX003 (ip), vehicle: saline with Tween-80
[14] = dose: 200.0 mg/kg/injection, schedule: Q04DX003 (ip), vehicle: saline with Tween-80

Measured: T/C

CC(C)(C)N(O)c1cccc(P(c2ccccc2)c2ccccc2)c1
inactive: dose: 50.0 mg/kg/injection, schedule: Q04DX002 (ip), vehicle: saline with Tween-80 91 % of control | dose: 100.0 mg/kg/injection, schedule: Q04DX002 (ip), vehicle: saline with Tween-80 94 % of control | dose: 200.0 mg/kg/injection, schedule: Q04DX002 (ip), vehicle: saline with Tween-80 100 % of control

COc1ccc(Cl)c2c1[nH]c1nc3nc4cc(Cl)ccc4n3nc12
inactive: dose: 12.5 mg/kg/injection, schedule: Q01DX005 (ip), vehicle: saline with Tween-80 90 % of control | dose: 25.0 mg/kg/injection, schedule: Q01DX005 (ip), vehicle: saline with Tween-80 94 % of control | [1] 101 % of control and 105 % of control | [2] 105 % of control | [3] 111 % of control

CC(=O)OC1CCC2(C)C(=CCC3C2CCC2(C)C3CC3ON=C(C)C32)C1 (stereo not drawn)
inactive: dose: 12.5 mg/kg/injection, schedule: Q01DX005 (ip), vehicle: Klucel (hydroxypropylcellulose) (HPC) 101 % of control | dose: 25.0 mg/kg/injection, schedule: Q01DX005 (ip), vehicle: Klucel (hydroxypropylcellulose) (HPC) 99 % of control | [4] 98 % of control | [5] 86 % of control | [6] 86 % of control

COc1c(O)c(O)c2c(c1O)C(=O)c1cc(C)cc(O)c1C2=O
inactive: dose: 5.0 mg/kg/injection, schedule: Q01DX009 (ip), vehicle: saline with Tween-80 99 % of control | dose: 10.0 mg/kg/injection, schedule: Q01DX009 (ip), vehicle: saline with Tween-80 103 % of control | dose: 20.0 mg/kg/injection, schedule: Q01DX009 (ip), vehicle: saline with Tween-80 105 % of control

O/N=C/C1CCCC[N-]1.[Co+3].[O-]/N=C/C1CCCC[N-]1.[O-]/N=C/C1CCCC[N-]1.[O-][Cl+3]([O-])([O-])O (stereo not drawn)
inactive: [7] 97 % of control | [8] 103 % of control | [9] 104 % of control

N#C/C(=C/c1ccc(Cl)cc1)C(=O)NC(N)=O
inactive: dose: 100.0 mg/kg/injection, schedule: Q04DX002 (ip), vehicle: saline 100 % of control | dose: 200.0 mg/kg/injection, schedule: Q04DX002 (ip), vehicle: saline 105 % of control | dose: 400.0 mg/kg/injection, schedule: Q04DX002 (ip), vehicle: saline 107 % of control

Nc1nc(N)sc(=S)n1
inactive: dose: 25.0 mg/kg/injection, schedule: Q01DX009 (ip), vehicle: Klucel (hydroxypropylcellulose) (HPC) 100 % of control | [10] 107 % of control | [11] 94 % of control | [12] 101 % of control

CC1=NN(C(=O)c2ccccc2)C(=O)C1N=Nc1ccc(Cl)cc1 (stereo not drawn)
inactive: dose: 100.0 mg/kg/injection, schedule: Q01DX001 (ip), vehicle: saline with Tween-80 94 % of control | dose: 200.0 mg/kg/injection, schedule: Q01DX001 (ip), vehicle: saline with Tween-80 94 % of control | dose: 400.0 mg/kg/injection, schedule: Q01DX001 (ip), vehicle: saline with Tween-80 88 % of control

COc1ccc2c(O)c(S(=O)(=O)c3ccc(Cl)cc3)c(=O)oc2c1
inactive: [7] 102 % of control | [8] 112 % of control | [9] 102 % of control

CC1CP(c2ccccc2)(c2ccccc2)(c2ccccc2)OC1(C(=O)c1ccccc1)c1ccccc1 (stereo not drawn)
inactive: dose: 6.25 mg/kg/injection, schedule: Q01DX009 (ip), vehicle: saline with Tween-80 100 % of control | dose: 25.0 mg/kg/injection, schedule: Q01DX009 (ip), vehicle: saline with Tween-80 88 % of control

O=S(=O)(Nc1ccc(Br)cc1)c1ccccc1
inactive: dose: 100.0 mg/kg/injection, schedule: Q01DX009 (ip), vehicle: saline with Tween-80 100 % of control | [13] 100 % of control | dose: 200.0 mg/kg/injection, schedule: Q01DX009 (ip), vehicle: saline with Tween-80 90 % of control | [14] 95 % of control | dose: 400.0 mg/kg/injection, schedule: Q01DX009 (ip), vehicle: saline with Tween-80 100 % of control | dose: 400.0 mg/kg/injection, schedule: Q04DX003 (ip), vehicle: saline with Tween-80 91 % of control

C=CCN1CCCSC1=S
inactive: [10] 106 % of control | [11] 108 % of control

Cc1cccc(C(=O)O)c1C
inactive: dose: 50.0 mg/kg/injection, schedule: Q04DX003 (ip), vehicle: gum acacia 100 % of control | dose: 100.0 mg/kg/injection, schedule: Q04DX003 (ip), vehicle: gum acacia 97 % of control | dose: 200.0 mg/kg/injection, schedule: Q04DX003 (ip), vehicle: gum acacia 93 % of control | dose: 400.0 mg/kg/injection, schedule: Q04DX003 (ip), vehicle: gum acacia 98 % of control

CCc1nc2c(cnn2C)c(=O)n1-c1ccc(C)cc1
inactive: [4] 97 % of control | [5] 101 % of control | [6] 98 % of control

C[CH2][Ge]([CH2]C)[CH2]C.C[CH2][Ge]([CH2]C)[CH2]C.[CH3][Ge][CH3]
inactive: dose: 50.0 mg/kg/injection, schedule: Q01DX009 (ip), vehicle: saline 90 % of control | dose: 100.0 mg/kg/injection, schedule: Q01DX009 (ip), vehicle: saline 90 % of control | dose: 200.0 mg/kg/injection, schedule: Q01DX009 (ip), vehicle: saline 92 % of control

CN1CCN(CC(=O)N/N=C/c2ccc([N+](=O)[O-])o2)CC1
inactive: [10] 101 % of control and 94 % of control | [11] 99 % of control and 101 % of control | [12] 107 % of control

CC(C)CC1NC(=O)N(CCN(C)C)C1=O (stereo not drawn)
inactive: [1] 100 % of control | [2] 106 % of control | [3] 100 % of control

Cc1ccc(S(=O)(=O)/C(=N\O)c2ccc(Cl)cc2)cc1
inactive: [4] 96 % of control | [5] 107 % of control | [6] 95 % of control

O=C(O)C(Cc1ccc(O)cc1)NSc1ccccc1[N+](=O)[O-] (stereo not drawn)
inactive: dose: 25.0 mg/kg/injection, schedule: Q01DX009 (ip), vehicle: water 111 % of control | dose: 50.0 mg/kg/injection, schedule: Q01DX009 (ip), vehicle: water 108 % of control | dose: 100.0 mg/kg/injection, schedule: Q01DX009 (ip), vehicle: water 104 % of control | dose: 200.0 mg/kg/injection, schedule: Q01DX009 (ip), vehicle: water 110 % of control

COc1ccc(N=Nc2c(-c3cccs3)nn(C(=S)SC)c2C(F)(F)F)cc1
inactive: dose: 7.5 mg/kg/injection, schedule: Q01DX005 (ip), vehicle: saline with Tween-80 101 % of control | dose: 15.0 mg/kg/injection, schedule: Q01DX005 (ip), vehicle: saline with Tween-80 108 % of control | dose: 30.0 mg/kg/injection, schedule: Q01DX005 (ip), vehicle: saline with Tween-80 95 % of control

CC1(OC(=O)c2ccccc2)CC(C)(C)[N+]([O-])=N1 (stereo not drawn)
inactive: dose: 12.5 mg/kg/injection, schedule: Q01DX005 (ip), vehicle: other 97 % of control | dose: 25.0 mg/kg/injection, schedule: Q01DX005 (ip), vehicle: other 98 % of control | dose: 50.0 mg/kg/injection, schedule: Q01DX005 (ip), vehicle: other 100 % of control | dose: 100.0 mg/kg/injection, schedule: Q01DX005 (ip), vehicle: other 90 % of control | dose: 200.0 mg/kg/injection, schedule: Q01DX005 (ip), vehicle: other 93 % of control

COc1ccc2nc(C)cc(N=[N+]=[N-])c2c1
inactive: [7] 100 % of control | [8] 100 % of control | [9] 91 % of control

CN=NNc1ccc(C#N)cc1
inactive: dose: 100.0 mg/kg/injection, schedule: Q01DX001 (ip), vehicle: Klucel (hydroxypropylcellulose) (HPC) 98 % of control | dose: 200.0 mg/kg/injection, schedule: Q01DX001 (ip), vehicle: Klucel (hydroxypropylcellulose) (HPC) 98 % of control | dose: 400.0 mg/kg/injection, schedule: Q01DX001 (ip), vehicle: Klucel (hydroxypropylcellulose) (HPC) 95 % of control

O=C(NO)/C(CC(=O)c1cccc(O)c1)=N\O
inactive: dose: 60.0 mg/kg/injection, schedule: Q01DX005 (ip), vehicle: saline 99 % of control | dose: 120.0 mg/kg/injection, schedule: Q01DX005 (ip), vehicle: saline 100 % of control | dose: 240.0 mg/kg/injection, schedule: Q01DX005 (ip), vehicle: saline 105 % of control

CCN(CC)CCOc1ccc(C2=C(c3ccccc3)CCc3cc(OC)ccc32)cc1
inactive: [13] 100 % of control | [14] 104 % of control

CCN(CC)CCSc1ccccc1
inactive: [4] 100 % of control | [5] 102 % of control

CCCCCCSc1nc2ccc(NC(C)=O)cc2s1
inactive: [10] 107 % of control | [11] 90 % of control
